Format in all cases: ADME, organism-based
A short description of series [1]: Volume of distribution at steady state in rat. The conditions noted are these: in vivo, read-out: Vdss.
Series [2] is described as follows: Clearance in rat. The conditions noted are these: in vivo.
Series [3] in a line: Oral bioavailability in rat. The conditions noted are these: in vivo.
Series [4] is described as follows: Half life in rat. The conditions noted are these: in vivo.

For the compound `O=C(NCc1ccc(Cl)cc1)c1cn2c(CCO)cc3cc(CN4CCOCC4)cc(c1=O)c32`, in series [1], the Vd amounted to 1.7 L/kg. In addition, the clearance (in general, a measure of how efficiently the substance is removed, as volume per time) in series [2] was 41.7 mL/min/kg. The bioavailability – broadly, dose-corrected exposure relative to a reference, in per cent – in series [3] amounted to 66%. Moreover, the half-life (usually how long it takes for the measured level to halve) in series [4] is 48 min.
